According to patent publication US20190352288A1, “MATRIX METALLOPROTEINASE (MMP) INHIBITORS AND METHODS OF USE THEREOF” (Foresee Pharmaceuticals Co., Ltd., priority 2018, published 2019):

Legend:
Format in all cases: biochemical
recombinant human MMP-2 = target: T1, recombinant human MMP-2 (Homo sapiens, UniProt P08253); assay: MMP selectivity assay, MMP-2; settings: Table 2 selectivity profile
T1 sequence (P08253 110-660): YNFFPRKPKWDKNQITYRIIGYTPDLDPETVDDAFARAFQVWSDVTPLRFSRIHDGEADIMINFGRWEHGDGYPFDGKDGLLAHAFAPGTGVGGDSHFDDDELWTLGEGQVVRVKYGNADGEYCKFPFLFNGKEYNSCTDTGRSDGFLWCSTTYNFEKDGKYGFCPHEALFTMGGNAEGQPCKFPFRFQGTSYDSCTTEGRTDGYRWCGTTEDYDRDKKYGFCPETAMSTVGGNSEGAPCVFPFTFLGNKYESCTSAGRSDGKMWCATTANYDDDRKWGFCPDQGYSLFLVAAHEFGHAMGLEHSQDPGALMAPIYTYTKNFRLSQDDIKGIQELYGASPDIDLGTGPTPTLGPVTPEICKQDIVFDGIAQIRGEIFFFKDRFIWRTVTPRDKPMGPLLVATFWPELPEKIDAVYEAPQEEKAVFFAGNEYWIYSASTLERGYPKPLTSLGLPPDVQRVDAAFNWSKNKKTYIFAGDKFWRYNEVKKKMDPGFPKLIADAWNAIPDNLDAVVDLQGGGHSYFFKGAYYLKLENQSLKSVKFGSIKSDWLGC
Description: (§1) The inhibitory effect of compounds on the rate of cleaving fluorogenic MMP substrate (Enzo, BML-P128) by recombinant human MMP-12 catalytic domain (Enzo, BML-SE138) was carried out by methods known in the art. Briefly, to each well of a 96-well black opaque plate, all the reagents were sequentially added by pipetting, and the final reaction contained 4 nM of recombinant human MMP-12 catalytic domain, 4 μM of fluorogenic MMP substrate, and various concentrations (0.15 nM to 10,000 nM) of tested compound dilutions in HEPES buffer (pH 7.5) containing 10 mM of CaCl2), 0.01% Brij® 35 (polyoxyethylene (23) lauryl ether), and 0.1 mg/ml of BSA.
(§2) The enzyme and compounds were pre-incubated on a shaker to mix in wells. After an hour of mixing, fluorogenic substrate was added to each well. Reaction without enzyme was used as a blank control in the plate. The plate was then fed into a plate reader to measure fluorescence intensity at Excitation/Emission wavelengths of 340 nm/440 nm every 10 mins for at least 1 hour at 37° C. The IC50 of each compound in MMP-12 inhibition was determined by using a readout obtained at time point 30 minutes.
(§3) The MMP selectivity assay was performed by using other recombinant human MMPs, including MMP-1, MMP-2, MMP-3, MMP-7, MMP-8, MMP-9, MMP-10, MMP-13, and MMP-14. The IC50 of the compounds for the other recombinant human MMPs was determined as described above in Example 1, and are shown in Table 2.

[1] = target: T2, recombinant human MMP-12 catalytic domain (Homo sapiens, UniProt P39900); assay: MMP-12 inhibitory assay (fluorogenic substrate cleavage); settings: readout at 30 minutes, 37° C., Table 1
T2 construct: recombinant human MMP-12 catalytic domain; purchased Enzo BML-SE138
T2 sequence (P39900 106-268 limits assumed): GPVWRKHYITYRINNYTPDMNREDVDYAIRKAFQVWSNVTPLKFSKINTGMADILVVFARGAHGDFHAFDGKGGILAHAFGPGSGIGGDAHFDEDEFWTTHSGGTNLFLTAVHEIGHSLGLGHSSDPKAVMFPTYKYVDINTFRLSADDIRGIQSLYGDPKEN
Description: as §1, §2

recombinant human MMP-1 = target: T3, recombinant human MMP-1 (Homo sapiens, UniProt P03956); assay: MMP selectivity assay, MMP-1; settings: Table 2 selectivity profile
T3 sequence (P03956 100-469): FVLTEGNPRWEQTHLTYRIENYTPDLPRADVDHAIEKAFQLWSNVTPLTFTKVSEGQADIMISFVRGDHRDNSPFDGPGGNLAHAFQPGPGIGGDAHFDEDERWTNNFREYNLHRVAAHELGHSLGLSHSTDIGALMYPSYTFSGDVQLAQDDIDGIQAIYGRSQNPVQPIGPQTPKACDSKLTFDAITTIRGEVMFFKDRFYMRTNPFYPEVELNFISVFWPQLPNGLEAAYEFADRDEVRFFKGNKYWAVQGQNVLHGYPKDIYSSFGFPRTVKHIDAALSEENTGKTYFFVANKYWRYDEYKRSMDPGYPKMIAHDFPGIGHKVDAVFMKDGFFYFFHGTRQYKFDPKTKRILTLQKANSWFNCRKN
Description: as §1, §2, §3

For `Cc1cc(COc2ccc(Sc3ccncc3C3NC(=O)NC3=O)cc2)ccn1` (stereo not drawn) [PC-16], the IC50 (recombinant human MMP-2) was 100 to 1000 nM, the IC50 [1] was under 10 nM and the IC50 (recombinant human MMP-1) was over 10000 nM.
